Test results published in patent publication US20240123073A1, “NOVEL RIPK1 KINASE TARGETING PROTACS AND METHODS OF USE THEREOF” (Baylor College of Medicine, priority 2020, published 2024).

target: T1, RIPK1 (Homo sapiens, UniProt Q13546); test: RIPK1 degradation Western Blot assay; type: cell-based; conditions: human cells, 24 h incubation at 37° C., read-out: Degradation Activity (DC50, concentration at which 50% of RIPK1 kinase has been degraded)
T1 construct: endogenous in cells
T1 sequence (Q13546 1-671): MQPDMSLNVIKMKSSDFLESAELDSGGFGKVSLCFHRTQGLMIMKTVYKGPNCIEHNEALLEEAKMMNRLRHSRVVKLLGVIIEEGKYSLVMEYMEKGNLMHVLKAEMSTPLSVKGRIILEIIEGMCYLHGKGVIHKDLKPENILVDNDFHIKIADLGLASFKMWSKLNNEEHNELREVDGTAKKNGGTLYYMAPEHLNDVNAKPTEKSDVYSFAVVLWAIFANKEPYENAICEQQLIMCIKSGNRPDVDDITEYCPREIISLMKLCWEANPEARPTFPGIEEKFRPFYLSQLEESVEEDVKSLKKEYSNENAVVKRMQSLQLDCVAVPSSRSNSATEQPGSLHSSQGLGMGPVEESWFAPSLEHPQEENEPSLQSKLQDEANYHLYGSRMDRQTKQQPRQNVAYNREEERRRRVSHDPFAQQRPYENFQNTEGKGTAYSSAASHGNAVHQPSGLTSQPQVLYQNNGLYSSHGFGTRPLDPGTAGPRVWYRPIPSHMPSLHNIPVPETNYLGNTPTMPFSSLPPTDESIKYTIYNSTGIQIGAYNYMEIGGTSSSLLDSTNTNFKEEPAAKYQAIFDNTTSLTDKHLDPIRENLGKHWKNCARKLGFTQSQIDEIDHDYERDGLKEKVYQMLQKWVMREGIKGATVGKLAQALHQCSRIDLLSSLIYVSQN
Description: Cells were seeded in 6-well cell culture plates overnight prior to treatment and incubated with the indicated doses of compounds for 24 h at 37° C. Then, cell pellets were collected and resuspended with RIPA lysis buffer, which was added with 1% […] inhibitor and phosphatase inhibitor Cocktail. Whole-cell protein lysates were sonicated on ice for 20 seconds and centrifuged at 12 000 rpm for 20 min at 4° C. The supernatants were determined using the BCA method. Proteins were separated by sodium dodecyl sulfate-polyacrylamide gel electrophoresis and transferred to polyvinylidene fluoride membranes. The membranes were incubated with blocking buffer for 1 h. Then, the membranes were incubated at 4° C. overnight with the primary antibodies. After washing, the membranes were incubated for 1 h at room temperature with the secondary antibody and washed again. Changes in protein expression was detected using an enhanced chemiluminescence detection reagent. RIPK1 antibody was purchased from Santa Cruz.
The activities of exemplary compounds as described herein, measured in terms of the degradation concentration (DC50 representing the concentration at which 50% of the target, in this case RIPK1 kinase, has been degraded), are provided in Table 11. In Table 11, a DC50 value less than 1 μM is indicated as an “A;” a DC50 value from 1 μM to 10 μM is indicated as a “B” and a DC50 value of greater than 10 μM is indicated as a “C.”

Compound	DC50
Cc1ncsc1-c1ccc([C@H](C)NC(=O)[C@@H]2C[C@@H](O)CN2C(=O)[C@@H](NC(=O)CCCCCCCCNC(=O)c2ccc(-c3cc(N4CCC(C(=O)N5N=CCC5c5ccccc5)CC4)ncn3)cc2)C(C)(C)C)cc1 (some centres unmarked) [Compound 77]	> 10000 nM
Cn1c(=O)n(C2CCC(=O)NC2=O)c2ccc(CCC(=O)N3CCC(C#Cc4ccc(C(=O)NCCCn5cc(-c6ccc7c(c6)CCN7C(=O)Cc6cccc(OC(F)(F)F)c6)c6c(N)ncnc65)cc4)CC3)cc21 (centres unmarked) [Compound 80]	< 1000 nM
Cc1ncsc1-c1ccc([C@H](C)NC(=O)[C@@H]2C[C@@H](O)CN2C(=O)[C@@H](NC(=O)CCC(=O)NCCCn2cc(-c3ccc4c(c3)CCN4C(=O)Cc3cccc(OC(F)(F)F)c3)c3c(N)ncnc32)C(C)(C)C)cc1 [Compound 1, N1-(3-(4-amino-5-(1-(2-(3-(trifluoromethoxy)phenyl)acetyl)indolin-5-yl)-7H-pyrrolo[2,3-d]pyrimidin-7-yl)propyl)-N4-((S)-1-((2S,4R)-4-hydroxy-2-(((S)-1-(4-(4 methylthiazol-5-yl)phenyl)ethyl)carbamoyl)pyrrolidin-1-yl)-3,3-dimethyl-1-oxobutan-2-yl)succinimide]	1000 to 10000 nM
Nc1ncnc2c1c(-c1ccc3c(c1)CCN3C(=O)Cc1cccc(OC(F)(F)F)c1)cn2CCCNC(=O)c1ccc(C#CC2CCN(C(=O)CN3CCC(c4ccc(NC5CCC(=O)NC5=O)cc4)CC3)CC2)cc1 (centres unmarked) [Compound 69]	1000 to 10000 nM
Cn1c(=O)n(C2CCC(=O)NC2=O)c2ccc(CCC(=O)N3CCN(c4ccc(C#Cc5ccc(C(=O)NCCCn6cc(-c7ccc8c(c7)CCN8C(=O)Cc7cccc(OC(F)(F)F)c7)c7c(N)ncnc76)cc5)cn4)CC3)cc21 (centres unmarked) [Compound 79]	< 1000 nM
O=C1CCC(C2C(=O)c3cccc(NCCOCCOCCOCCC(=O)N4CCC(C(=O)N5N=CCC5c5ccccc5)CC4)c3C2=O)C(=O)N1 (centres unmarked) [Compound 11]	> 10000 nM
Cc1ncsc1-c1ccc([C@H](C)NC(=O)[C@@H]2C[C@@H](O)CN2C(=O)[C@@H](NC(=O)CCOCCOCCOCCNC(=O)c2ccc(-c3cc(N4CCC(C(=O)N5N=CCC5c5ccccc5)CC4)ncn3)cc2)C(C)(C)C)cc1 (stereo partly drawn) [Compound 23, (2S,4R)-1-((16S)-16-(tert-butyl)-1,14-dioxo-1-(4-(6-(4-(5-phenyl-4,5-dihydro-1H-pyrazole-1-carbonyl)piperidin-1-yl)pyrimidin-4-yl)phenyl)-5,8,11-trioxa-2,15-diazaheptadecane-17-oyl)-4-hydroxy-N—((S)-1-(4-(4-methylthiazol-5-yl)phenyl)ethyl)pyrrolidine-2-carboxamide]	> 10000 nM
Cc1ncsc1-c1ccc([C@H](C)NC(=O)[C@@H]2C[C@@H](O)CN2C(=O)[C@@H](NC(=O)CCCCCCCCC(=O)N2CCC(C(=O)N3N=CCC3c3ccccc3)CC2)C(C)(C)C)cc1 (stereo partly drawn) [Compound 13, (2S,4R)-1-((2S)-3,3-dimethyl-2-(10-oxo-10-(4-(5-phenyl-4,5-dihydro-1H-pyrazole-1-carbonyl)piperidin-1-yl)decanamide)butanoyl)-4-hydroxy-N—((S)-1-(4-(4-methylthiazol-5-yl)phenyl)ethyl)pyrrolidine-2-carboxamide]	> 10000 nM
Cc1ncsc1-c1ccc([C@H](CC(=O)N2CCC(N3CCC(C#Cc4ccc(C(=O)NCCCn5cc(-c6ccc7c(c6)CCN7C(=O)Cc6cccc(OC(F)(F)F)c6)c6c(N)ncnc65)cc4)CC3)CC2)NC(=O)[C@@H]2C[C@@H](O)CN2C(=O)[C@@H](NC(=O)C2(F)CC2)C(C)(C)C)cc1 [Compound 45]	< 1000 nM
Cn1c(=O)n(C2CCC(=O)NC2=O)c2ccc(CCC(=O)N3CCC(N4CCC(C#Cc5ccc(C(=O)NCCCn6cc(-c7ccc8c(c7)CCN8C(=O)Cc7cccc(OC(F)(F)F)c7)c7c(N)ncnc76)cc5)CC4)CC3)cc21 (centres unmarked) [Compound 78]	< 1000 nM
Nc1ncnc2c1c(-c1ccc3c(c1)CCN3C(=O)Cc1cccc(OC(F)(F)F)c1)cn2CCCNC(=O)c1ccc(C#Cc2ccc(N3CCN(C(=O)CN4CCC(c5ccc(NC6CCC(=O)NC6=O)cc5)CC4)CC3)nc2)cc1 (centres unmarked) [Compound 67]	< 1000 nM
